From patent US7019034B2, “Compositions and methods for reducing serum glucose and triglyceride levels in diabetic mammals” (Allergan, Inc., priority 2003, dated 2006)

What was measured:
RARα = target: T1, RARα (Homo sapiens, UniProt P10276); test: chimeric receptor transactivation assay, RARα; assay type: cell-based
T1 sequence (P10276 1-462): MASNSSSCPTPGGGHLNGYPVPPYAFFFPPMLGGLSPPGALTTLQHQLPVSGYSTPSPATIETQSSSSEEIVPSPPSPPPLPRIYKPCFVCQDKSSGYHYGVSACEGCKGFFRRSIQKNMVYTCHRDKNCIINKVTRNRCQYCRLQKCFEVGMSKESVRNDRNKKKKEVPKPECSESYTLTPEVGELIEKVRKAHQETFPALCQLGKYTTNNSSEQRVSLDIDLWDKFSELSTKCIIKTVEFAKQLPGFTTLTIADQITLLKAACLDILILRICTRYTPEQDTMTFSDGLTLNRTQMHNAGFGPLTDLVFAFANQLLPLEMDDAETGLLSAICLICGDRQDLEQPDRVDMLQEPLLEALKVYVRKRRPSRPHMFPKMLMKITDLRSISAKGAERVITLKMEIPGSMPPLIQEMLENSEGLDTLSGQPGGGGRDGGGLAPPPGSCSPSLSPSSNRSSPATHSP
Description: (§1) The specification of U.S. Pat. No. 5,455,265 is hereby expressly incorporated by reference.
(§2) Table 1 discloses the activity of certain exemplary compounds of the invention in the above-described receptor transactivation and binding assays. Particularly, the transactivation data pertaining to activation of the RAR receptors were obtained in the chimeric assay, and the transactivation data pertaining to the activation of RXR receptors were obtained in the holoreceptor assay.
(§3) Efficacy in a transactivation assay is expressed as a percentage of the maximum potency attained by the compound compared to a standard which, in this case, is the compound named (2E,4E,1′S,2′S)-3-methyl-5-[2′-methyl-2′-(5,5,8,8-tetramethyl-5,6,7,8-tetrahydro-naphthalen-2-yl)-cyclopropyl]-penta-2,4-dienoic acid.
(§4) In Table 1 NA stands for not active at all as an agonist. ND stands for not determined. The first row of numbers pertaining to each compound is the measured EC50 number. […] The third row of numbers pertaining to each compound is the binding Ki number.

RARγ = target: T2, RARγ (Homo sapiens, UniProt P13631); test: chimeric receptor transactivation assay, RARγ; assay type: cell-based
T2 sequence (P13631 185-419 limits assumed): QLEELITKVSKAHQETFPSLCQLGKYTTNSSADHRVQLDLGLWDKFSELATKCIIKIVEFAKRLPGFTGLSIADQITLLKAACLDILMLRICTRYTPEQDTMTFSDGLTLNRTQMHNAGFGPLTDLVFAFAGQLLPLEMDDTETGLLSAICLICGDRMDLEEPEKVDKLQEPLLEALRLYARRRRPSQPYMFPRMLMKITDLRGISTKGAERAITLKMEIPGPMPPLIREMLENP
Description: as §1, §2, §3, §4

Row | EC50 (RARα; NA = not active at all as an agonist, read-out: RAR Trans. EC50 α) [nM] | RAR α efficacy in percentage as compared to the standard compound (RARα; number in brackets) [%] | EC50 (RARγ; NA = not active at all as an agonist, read-out: RAR Trans. EC50 γ) [nM] | RAR γ efficacy in percentage as compared to the standard compound (RARγ; number in brackets) [%] | Compound
1 | 37 | 15 | – | – | CCOc1cc2c(cc1\C(CC)=C(F)/C=C/C(C)=C/C(=O)O)C(C)(C)CCC2(C)C [Compound 2, (2E,4E,6E)-7-(3-Ethoxy-5,5,8,8-tetramethyl-5,6,7,8-tetrahydronaphthalen-2-yl)-6-fluoro-3-methylnona-2,4,6-trienoic acid]
2 | – | – | > 1000 | 15 | CCCOc1cc2c(cc1\C(C)=C(F)/C=C/C(C)=C/C(=O)O)C(C)(C)CCC2(C)C [Compound 4]
